Results on 1 compound are retold here after publication PMC6508677, “Identification of druggable small molecule antagonists of the Plasmodium falciparum hexose transporter PfHT and assessment of ligand access to the glucose permeation pathway via FLAG-mediated protein engineering” (PLoS ONE, 2019).

The assay concerns the target T1, hGLUT8 (Homo sapiens, UniProt Q9NY64, E7R/E8R).
T1 construct: expressed in transfected cells; host or cells: HEK293 (HEK293-FLIP, native hGLUT1 knocked down)
T1 sequence (Q9NY64 1-477 E7R/E8R): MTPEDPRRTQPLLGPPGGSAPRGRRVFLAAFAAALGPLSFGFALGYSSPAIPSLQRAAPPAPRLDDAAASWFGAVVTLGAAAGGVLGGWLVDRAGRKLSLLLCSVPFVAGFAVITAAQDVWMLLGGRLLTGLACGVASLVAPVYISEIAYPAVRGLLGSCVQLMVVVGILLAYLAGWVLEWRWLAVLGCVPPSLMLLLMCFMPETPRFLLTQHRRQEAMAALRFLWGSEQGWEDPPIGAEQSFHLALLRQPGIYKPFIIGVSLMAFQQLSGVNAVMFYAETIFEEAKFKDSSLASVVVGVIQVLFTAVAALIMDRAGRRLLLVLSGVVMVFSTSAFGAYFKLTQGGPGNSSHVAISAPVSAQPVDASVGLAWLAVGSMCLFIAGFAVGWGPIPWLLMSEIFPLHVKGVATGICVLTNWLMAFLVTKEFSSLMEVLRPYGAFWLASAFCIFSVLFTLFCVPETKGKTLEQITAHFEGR
Nature of the assay: [3H]-D-fructose uptake by HEK293 cells overexpressing hGLUT8. The class given is cell-based. From the text: Generation of HEK293 cells overexpressing PfHT and human GLUTs 1–4 were described elsewhere. Briefly, HEK293 cells were transfected with pcDNA3.1 FLII12Pglu-7006 (Addgene), containing the fluorescence resonance energy transfer (FRET) glucose sensor (HEK293-FLIP) and PfHT, human GLUT1 (hGLUT1), hGLUT2, hGLUT3, hGLUT4, hGLUT5 or hGLUT8 using Optifect (Life Technologies) according to manufacturer’s specifications. To increase retention of GLUT8 at the plasma membrane, the dileucine sorting signal E^7E^8XXXLL was modified to R^7R^8XXXLL as described in [17]. Stable transfectants were selected for G418 and hygromycin resistance to select for FRET sensor and hexose transporter, respectively. HEK293-FLIP cells were also used to generate cells stably transfected with FLAG-tagged PfHT (FTPfHT). FLAG tag ([…]) followed by a triple glycine linker and a tobacco etch virus (TEV) protease site (ENLYFQS) followed by a triple glycine linker was added to the N-terminus of PfHT via PCR [18] using Phusion Hot Start II High-Fidelity DNA Polymerase (Fisher Scientific). Single clones were selected by comparing their abilities to transport glucose as assayed via FRET and radiolabeled hexose uptake. In all cell lines, except for HEK293 cells overexpressing hGLUT1 and hGLUT5, native hGLUT1 was knocked down using shRNA as described elsewhere. Transcript levels of the individual GLUTs expressed in each cell line are as described in [13, 15] and in S1 Fig.
Glucose uptake by P. falciparum was performed essentially as described. P. falciparum strain 3D7 was cultured in 100 mm tissue culture dishes (Techno Plastic Products) in a 2% suspension of human erythrocytes and RPMI 1640 medium until reaching > 7.5% parasitemia. Cells were pelleted via centrifugation and resuspended in RPMI 1640 medium. To determine the uptake of radiolabeled glucose into the parasite, parasites were isolated from infected erythrocytes by permeablization with saponin (0.05 w/v), followed by centrifugation, aspiration of supernatant and washing of the pellet 3X with saline solution (135 mM NaCl, 2 mM KCl, 25 mM HEPES, 0.2 mM glucose and 1 mM MgCl2; pH 7.1) to remove cellular debris. WU-1 or DMSO vehicle were added to 100 μl parasites (resuspended in saline) 5 min prior to the addition of 100 μl [^14C]2-DOG (0.2- μCi/ml final concentration). 2-DG uptake was stopped after 2 min by layering the entire reaction over 300 μl of an oil mixture (5:4 mix of dibutyl phthalate / dinonyl phthalate) in Eppendorf tubes and centrifuged at 15,850 × g for 2 mins. The ratio of the estimated intracellular concentration of radiolabel relative to the extracellular concentration were calculated as described. Uptake of radiolabeled hexose into HEK293 cells was measured in glucose-free HBSS as described previously. Briefly, cells were plated at 400,000 cells/well overnight at 37°C in 24-well plates pre-treated with PEI. After 30-min incubation at 37°C in glucose-free HBSS in the presence of vehicle or increasing concentrations of compound, 2-DG uptake was measured in glucose-free HBSS for 4 min at 37°C. Cultures were washed in ice-cold 1X PBS and lysed in 0.1% Triton X-100 in 1X PBS. Radiolabeled hexose uptake was determined by liquid scintillation counting (Ultima Gold, Thermo Fisher) and normalized to total protein per well. Uptake data are plotted as percent uptake relative to vehicle-treated cells. Kinetic analyses were performed using the indicated concentrations of substrate and WU-1, with quenching of uptake after 1 min incubation. Incubation times had been previously determined as being in the linear range of time-dependent radiolabeled hexose uptake (2 min for 2-DG uptake into freed parasites; 2 and 4 min for D-Frc and 2-DG uptake HEK cell lines, respectively). Data were fit by least squares nonlinear regression analysis using GraphPad Prism 6.0 software.

Setting [1] is: HEK293, 2 min, read-out: D-frc Uptake AVE.

“And” between values parts separate entries of the source, which are not always exact repeats. Equal entries are not always repeated. Where two headings read alike, the source gives them in different places.

Usually IC50 stands for the point on the concentration scale where inhibition reaches its midpoint. On to `Cc1ccc(S(=O)(=O)CCNC(=O)c2c(-c3c(Cl)cccc3Cl)noc2C)cc1` [WU-1, 3-(2,6-dichlorophenyl)-5-methyl-N-[2-(4-methylbenzenesulfonyl)ethyl]-1,2-oxazole-4-carboxamide], for which the IC50 was 22 µM (GLUT8, D-frc Uptake, average of Expt 1-3, read-out: AVE IC50); 23.3 µM and 19.7 µM and 23.1 µM (GLUT8, D-frc Uptake, single experiments Expt 1-3, read-out: IC50); 22 ± 1.2 µM (GLUT8 cell line, read-out: IC50, D-fructose (Frc) uptake). For the setting “HEK293, 2 min, GLUT8, concentration 0.001 µM, Expt 1-3, read-out: D-frc Uptake AVE”, the remaining activity at 0.001 µM was 100%. In addition, for the setting “HEK293, 2 min, GLUT8, concentration 0.313 µM, read-out: D-frc Uptake AVE”, the remaining activity at 0.313 µM worked out at 96.4%. Besides, the remaining activity at 0.625 µM by setting is: (HEK293, 2 min, GLUT8, concentration 0.625 µM, read-out: D-frc Uptake AVE) 90%; under setting [1], 91.6%. For the same compound, for the setting “HEK293, 2 min, GLUT8, concentration 1.250 µM, read-out: D-frc Uptake AVE”, the remaining activity at 1.25 µM stood at 89.1%. The remaining activity at 2.5 µM (HEK293, 2 min, GLUT8, concentration 2.500 µM, read-out: D-frc Uptake AVE) was determined as 86% and the remaining activity at 2.5 µM under setting [1] worked out at 84.6%. Besides, under “HEK293, 2 min, GLUT8, concentration 5.0 µM, read-out: D-frc Uptake AVE”, the remaining activity at 5 µM is 78.5%. Besides, the remaining activity at 10 µM (HEK293, 2 min, GLUT8, concentration 10.0 µM, read-out: D-frc Uptake AVE) was found to be 71.4%. Also, the remaining activity at 20 µM (HEK293, 2 min, GLUT8, concentration 20 µM, read-out: D-frc Uptake AVE) was 53%. Further, where the note is “HEK293, 2 min, GLUT8, concentration 40 µM, read-out: D-frc Uptake AVE”, the remaining activity at 40 µM stood at 46.1%. Besides, under “HEK293, 2 min, GLUT8, concentration 80 µM, read-out: D-frc Uptake AVE”, the remaining activity at 80 µM worked out at 30.5%. Further, the remaining activity at 160 µM (HEK293, 2 min, GLUT8, concentration 160 µM, read-out: D-frc Uptake AVE) is 24.8%. In addition, the remaining activity at 225 µM (HEK293, 2 min, GLUT8, concentration 225 µM, read-out: D-frc Uptake AVE) worked out at 22.6%. The “Selectivity Index (PfHT over GLUT8), Frc” value (calculated from IC50s) is on record as 4.4.
